Results as given in ChEMBL document CHEMBL1125860 (J Med Chem, 1991).
Activity calls are given as the source filed them. No cut-off for these calls is given here.

Assays:
Rattus norvegicus [1] = assay: In vivo inhibition of galactitol accumulation in sciatic nerves of rat at 25 mg/kg/day; format: functional; conditions: Sciatic nerve
[2] = target: Aldo-keto reductase family 1 member B1 (Bos taurus) (UniProt P16116); assay: In vitro % decrease of aldose reductase measured in isolated partially purified bovine lens preparations at 10e-7 M concentration
Rattus norvegicus [3] = assay: In vivo inhibition of galactitol accumulation in diaphragm of rat at 25 mg/kg/day; format: functional
Rattus norvegicus [4] = assay: In vivo inhibition of galactitol accumulation in sciatic nerves of rat at 26 mg/kg/day; Not significant; format: functional, organism-based; conditions: Sciatic nerve
Rattus norvegicus [5] = assay: In vivo inhibition of galactitol accumulation in diaphragm of rat at 26 mg/kg/day; format: functional
Rattus norvegicus [6] = assay: In vivo inhibition of galactitol accumulation in sciatic nerves of rat at 48 mg/kg/day; format: functional; conditions: Sciatic nerve
[7] = target: Aldo-keto reductase family 1 member B1 (Bos taurus) (UniProt P16116); assay: In vitro % decrease of aldose reductase was measured in isolated partially purified bovine lens preparations at 10e-7 M concentration; Not active
Rattus norvegicus [8] = assay: In vivo inhibition of galactitol accumulation in diaphragm of rat at 48 mg/kg/day; Not significant; format: functional, organism-based
Rattus norvegicus [9] = assay: In vivo inhibition of galactitol accumulation in sciatic nerves of rat at 26 mg/kg/day; format: functional; conditions: Sciatic nerve
Rattus norvegicus [10] = species on record: Rattus norvegicus; assay: In vitro inhibition of sorbitol accumulation was measured in rat sciatic nerves incubated in the presence of 50 mM glucose at 10e-5 M concentration; format: functional, Sciatic nerve
Rattus norvegicus [11] = species on record: Rattus norvegicus; assay: In vitro inhibition of sorbitol accumulation was measured in rat sciatic nerves incubated in the presence of 50 mM glucose at 10e-6 M concentration; format: functional, Sciatic nerve
Rattus norvegicus [12] = assay: In vivo inhibition of galactitol accumulation in sciatic nerves of rat at 50 mg/kg/day; Not significant; format: functional, organism-based; conditions: Sciatic nerve
Rattus norvegicus [13] = assay: In vivo inhibition of galactitol accumulation in diaphragm of rat at 50 mg/kg/day; Not significant; format: functional, organism-based
Rattus norvegicus [14] = assay: In vivo inhibition of galactitol accumulation in diaphragm of rat at 53 mg/kg/day; format: functional
Rattus norvegicus [15] = assay: In vivo inhibition of galactitol accumulation in sciatic nerves of rat at 53 mg/kg/day; Not significant; format: functional, organism-based; conditions: Sciatic nerve
Rattus norvegicus [16] = assay: In vivo inhibition of galactitol accumulation in diaphragm of rat at 48 mg/kg/day; format: functional
Rattus norvegicus [17] = assay: In vivo inhibition of galactitol accumulation in sciatic nerves of rat at 48 mg/kg/day; Not significant; format: functional, organism-based; conditions: Sciatic nerve
Rattus norvegicus [18] = assay: In vivo inhibition of galactitol accumulation in sciatic nerves of rat at 10 mg/kg/day; format: functional; conditions: Sciatic nerve
Rattus norvegicus [19] = assay: In vivo inhibition of galactitol accumulation in diaphragm of rat at 10 mg/kg/day; format: functional
Rattus norvegicus [20] = assay: In vivo inhibition of galactitol accumulation in sciatic nerves of rat at 49 mg/kg/day; format: functional; conditions: Sciatic nerve
Rattus norvegicus [21] = assay: In vivo inhibition of galactitol accumulation in diaphragm of rat at 49 mg/kg/day; format: functional
Rattus norvegicus [22] = assay: In vivo inhibition of galactitol accumulation in sciatic nerves of rat at 47 mg/kg/day; Not significant; format: functional, organism-based; conditions: Sciatic nerve
Rattus norvegicus [23] = assay: In vivo inhibition of galactitol accumulation in diaphragm of rat at 47 mg/kg/day; Not significant; format: functional, organism-based
Rattus norvegicus [24] = assay: In vivo inhibition of galactitol accumulation in sciatic nerves of rat at 52 mg/kg/day; Not significant; format: functional, organism-based; conditions: Sciatic nerve
Rattus norvegicus [25] = assay: In vivo inhibition of galactitol accumulation in diaphragm of rat at 52 mg/kg/day; Not significant; format: functional, organism-based
[26] = target: Aldo-keto reductase family 1 member B1 (Bos taurus) (UniProt P16116); assay: In vitro% decrease of aldose reductase was measured in isolated partially purified bovine lens preparations at 10e-7 M concentration
Rattus norvegicus [27] = assay: In vivo inhibition of galactitol accumulation in diaphragm of rat at 50 mg/kg/day; format: functional
Rattus norvegicus [28] = assay: In vivo inhibition of galactitol accumulation in sciatic nerves of rat at 50 mg/kg/day; format: functional; conditions: Sciatic nerve
Rattus norvegicus [29] = assay: In vivo inhibition of galactitol accumulation in diaphragm of rat at 24 mg/kg/day; format: functional
Rattus norvegicus [30] = assay: In vivo inhibition of galactitol accumulation in sciatic nerves of rat at 24 mg/kg/day; format: functional; conditions: Sciatic nerve
Rattus norvegicus [31] = assay: In vivo inhibition of galactitol accumulation in sciatic nerves of rat at 24 mg/kg/day; Not significant; format: functional, organism-based; conditions: Sciatic nerve
Rattus norvegicus [32] = assay: In vivo inhibition of galactitol accumulation in sciatic nerves of rat at 5 mg/kg/day; format: functional; conditions: Sciatic nerve
Rattus norvegicus [33] = assay: In vivo inhibition of galactitol accumulation in diaphragm of rat at 5 mg/kg/day; format: functional
Rattus norvegicus [34] = assay: In vivo inhibition of galactitol accumulation in sciatic nerves of rat at 2 mg/kg/day; Not significant; format: functional, organism-based; conditions: Sciatic nerve
[35] = target: Aldo-keto reductase family 1 member B1 (Bos taurus) (UniProt P16116); assay: In vitro % decrease of […] reductase was measured in isolated partially purified bovine lens preparations at 10e-7 M concentration
Rattus norvegicus [36] = assay: In vivo inhibition of galactitol accumulation in sciatic nerves of rat at 27 mg/kg/day; Not significant; format: functional, organism-based; conditions: Sciatic nerve
Rattus norvegicus [37] = assay: In vivo inhibition of galactitol accumulation in diaphragm of rat at 27 mg/kg/day; format: functional

COc1ccc2c(C(=S)N(C)CC(=O)O)ccc(F)c2c1C(F)(F)F
inhibition in vivo at 25 mg/kg/day (Rattus norvegicus [1]): 94%
inhibition [2]: 84%
inhibition in vivo at 25 mg/kg/day (Rattus norvegicus [3]): 90%

COc1ccc2c(C(F)(F)F)c(OC)ccc2c1C(=S)N(C)CC(=O)O
inhibition (Rattus norvegicus [4]): inactive
inhibition in vivo at 26 mg/kg/day (Rattus norvegicus [5]): 71%
inhibition [2]: 91%

COc1ccc2c(C(=S)N(C)CC(=O)O)cc(Br)cc2c1Br
inhibition (Rattus norvegicus [4]): inactive
inhibition in vivo at 26 mg/kg/day (Rattus norvegicus [5]): 86%
inhibition [2]: 94%

CCCCc1ccc2c(C(F)(F)F)c(OC)ccc2c1C(=O)N(C)CC(N)=O
inhibition in vivo at 48 mg/kg/day (Rattus norvegicus [6]): 30%
inhibition [7]: inactive
inhibition (Rattus norvegicus [8]): inactive

COc1ccc2c(C(=S)N(C)CC(=O)O)c(OCC(F)(F)F)ccc2c1C(F)(F)F
inhibition in vivo at 26 mg/kg/day (Rattus norvegicus [5]): 88%
inhibition [2]: 86%
inhibition in vivo at 26 mg/kg/day (Rattus norvegicus [9]): 33%

COc1ccc2c(C(=S)N(C)CC(=O)O)c(OCc3ccccc3)ccc2c1C(F)(F)F
inhibition (Rattus norvegicus [4]): inactive
inhibition in vivo at 26 mg/kg/day (Rattus norvegicus [5]): 80%
inhibition [2]: 84%

COc1ccc2c(C(=O)N(C)CC(=O)O)c(SC)ccc2c1C(F)(F)F
Inhibition (Rattus norvegicus [10]): 60%
Inhibition (Rattus norvegicus [11]): 41%
inhibition (Rattus norvegicus [12]): inactive
inhibition (Rattus norvegicus [13]): inactive
inhibition [2]: 69%

COc1ccc2c(C(=S)N(C)CC(=O)O)cc(-c3ccccc3)cc2c1C(F)(F)F
Inhibition (Rattus norvegicus [10]): 87%
Inhibition (Rattus norvegicus [11]): 36%
inhibition in vivo at 53 mg/kg/day (Rattus norvegicus [14]): 82%
inhibition (Rattus norvegicus [15]): inactive
inhibition [2]: 93%

COc1ccc2c(C(=O)N(C)CC(=O)O)c(C(F)(F)F)ccc2c1C(F)(F)F
Inhibition (Rattus norvegicus [10]): 65%
Inhibition (Rattus norvegicus [11]): 35%
inhibition in vivo at 48 mg/kg/day (Rattus norvegicus [16]): 52%
inhibition [2]: 32%
inhibition (Rattus norvegicus [17]): inactive

COC(=O)N(CC(=O)O)C(=O)c1cccc2c(C(F)(F)F)c(OC)ccc12
inhibition in vivo at 10 mg/kg/day (Rattus norvegicus [18]): 86%
inhibition in vivo at 48 mg/kg/day (Rattus norvegicus [6]): 70%
Inhibition (Rattus norvegicus [10]): 58%
inhibition in vivo at 48 mg/kg/day (Rattus norvegicus [16]): 54%
inhibition in vivo at 10 mg/kg/day (Rattus norvegicus [19]): 76%

COC(=O)N(CC(=O)O)C(=O)c1c(OC)ccc2c(C(F)(F)F)c(OC)ccc12
inhibition in vivo at 49 mg/kg/day (Rattus norvegicus [20]): 36%
inhibition in vivo at 49 mg/kg/day (Rattus norvegicus [21]): 33%
inhibition [2]: 83%

COC(=O)N(CC(=O)O)C(=O)c1c(Cl)ccc2c(C(F)(F)F)c(OC)ccc12
Inhibition (Rattus norvegicus [10]): 75%
Inhibition (Rattus norvegicus [11]): 49%
inhibition in vivo at 26 mg/kg/day (Rattus norvegicus [5]): 68%
inhibition [2]: 85%

CCOC(=O)N(CC(=O)O)C(=O)c1cc(Br)cc2c(Br)c(OC)ccc12
inhibition (Rattus norvegicus [22]): inactive
inhibition (Rattus norvegicus [23]): inactive
inhibition [2]: 84%

COc1ccc2c(C(=S)N(C)CC(=O)O)cc(F)cc2c1Br
inhibition (Rattus norvegicus [4]): inactive
inhibition in vivo at 26 mg/kg/day (Rattus norvegicus [5]): 86%
inhibition [2]: 86%

COc1ccc2c(C(=O)N(C)CC(=O)O)cc(Cc3ccc(Br)cc3F)cc2c1Br
Inhibition (Rattus norvegicus [10]): 92%
Inhibition (Rattus norvegicus [11]): 63%
inhibition (Rattus norvegicus [24]): inactive
inhibition (Rattus norvegicus [25]): inactive
inhibition [26]: 66%

CCCOc1ccc2c(C(F)(F)F)c(OC)ccc2c1C(=O)N(C)CC(=O)O
inhibition in vivo at 50 mg/kg/day (Rattus norvegicus [27]): 57%
inhibition in vivo at 50 mg/kg/day (Rattus norvegicus [28]): 48%
inhibition [2]: 46%

COc1ccc2c(C(=O)N(C)CC(=O)O)cc(-c3ccccc3)cc2c1C(F)(F)F
Inhibition (Rattus norvegicus [10]): 77%
Inhibition (Rattus norvegicus [11]): 32%
inhibition (Rattus norvegicus [12]): inactive
inhibition (Rattus norvegicus [13]): inactive
inhibition [2]: 63%

COc1ccc2c(C(=O)N(C)CC(=O)O)ccc(F)c2c1C(F)(F)F
inhibition (Rattus norvegicus [4]): inactive
inhibition in vivo at 26 mg/kg/day (Rattus norvegicus [5]): 15%
inhibition [2]: 64%

COc1ccc2c(C(=O)N(C)CC(=O)O)c(Oc3ccccc3)ccc2c1C(F)(F)F
inhibition in vivo at 48 mg/kg/day (Rattus norvegicus [6]): 32%
Inhibition (Rattus norvegicus [10]): 78%
Inhibition (Rattus norvegicus [11]): 45%
inhibition in vivo at 48 mg/kg/day (Rattus norvegicus [16]): 67%
inhibition [2]: 83%

CCOc1ccc2c(C(F)(F)F)c(OC)ccc2c1C(=O)N(C)CC(=O)O
inhibition in vivo at 49 mg/kg/day (Rattus norvegicus [20]): 45%
Inhibition (Rattus norvegicus [10]): 55%
Inhibition (Rattus norvegicus [11]): 30%
inhibition in vivo at 49 mg/kg/day (Rattus norvegicus [21]): 57%
inhibition [2]: 65%

COc1ccc2c(C(=O)N(C)CC(N)=O)c(Cl)ccc2c1C(F)(F)F
inhibition [7]: inactive
inhibition in vivo at 24 mg/kg/day (Rattus norvegicus [29]): 53%
inhibition in vivo at 24 mg/kg/day (Rattus norvegicus [30]): 62%

COc1ccc2c(C(=S)N(C)CC(=O)O)c(Cl)ccc2c1C(F)(F)F
inhibition (Rattus norvegicus [31]): inactive
inhibition in vivo at 24 mg/kg/day (Rattus norvegicus [29]): 90%
inhibition [2]: 81%

COc1ccc2c(C(=S)N(C)CC(N)=O)c(F)ccc2c1C(F)(F)F
inhibition in vivo at 10 mg/kg/day (Rattus norvegicus [18]): 54%
inhibition in vivo at 5 mg/kg/day (Rattus norvegicus [32]): 33%
inhibition in vivo at 5 mg/kg/day (Rattus norvegicus [33]): 80%
inhibition (Rattus norvegicus [34]): inactive

COc1ccc2c(C(=S)N(C)CC(=O)O)c(Oc3ccccc3)ccc2c1C(F)(F)F
inhibition (Rattus norvegicus [31]): inactive
inhibition in vivo at 24 mg/kg/day (Rattus norvegicus [29]): 83%
inhibition [2]: 89%

COc1ccc2c(C(=S)N(C)CC(=O)O)c(C)ccc2c1C(F)(F)F
inhibition [35]: 70%
inhibition (Rattus norvegicus [4]): inactive
inhibition in vivo at 26 mg/kg/day (Rattus norvegicus [5]): 91%

CCOC(=O)NC(=O)CN(C)C(=O)c1c(F)ccc2c(C(F)(F)F)c(OC)ccc12
inhibition in vivo at 10 mg/kg/day (Rattus norvegicus [18]): 59%
inhibition [7]: inactive
inhibition in vivo at 5 mg/kg/day (Rattus norvegicus [32]): 36%
inhibition in vivo at 5 mg/kg/day (Rattus norvegicus [33]): 22%
inhibition in vivo at 10 mg/kg/day (Rattus norvegicus [19]): 41%

COc1ccc2c(C(=O)N(C)CC(=O)O)c(Cc3ccccc3)ccc2c1C(F)(F)F
inhibition (Rattus norvegicus [12]): inactive
inhibition (Rattus norvegicus [13]): inactive
inhibition [2]: 52%

COc1ccc2c(C(=O)N(C)CC(N)=O)c(C(C)(C)C)ccc2c1C(F)(F)F
inhibition [7]: inactive
inhibition (Rattus norvegicus [8]): inactive
inhibition (Rattus norvegicus [17]): inactive

CCOC(=O)N(CC(=O)O)C(=O)c1c(Cl)ccc2c(C(F)(F)F)c(OC)ccc12
Inhibition (Rattus norvegicus [10]): 79%
inhibition in vivo at 50 mg/kg/day (Rattus norvegicus [27]): 47%
Inhibition (Rattus norvegicus [11]): 54%
inhibition (Rattus norvegicus [12]): inactive
inhibition [2]: 79%

CCOC(=O)N(CC(=O)O)C(=O)c1c(OCC(F)(F)F)ccc2c(C(F)(F)F)c(OC)ccc12
Inhibition (Rattus norvegicus [10]): 72%
Inhibition (Rattus norvegicus [11]): 42%
inhibition (Rattus norvegicus [36]): inactive
inhibition in vivo at 27 mg/kg/day (Rattus norvegicus [37]): 39%
inhibition [2]: 78%

COC(=O)N(CC(=O)O)C(=O)c1c(OCC(F)(F)F)ccc2c(C(F)(F)F)c(OC)ccc12
Inhibition (Rattus norvegicus [10]): 64%
Inhibition (Rattus norvegicus [11]): 36%
inhibition (Rattus norvegicus [36]): inactive
inhibition in vivo at 27 mg/kg/day (Rattus norvegicus [37]): 49%
inhibition [2]: 83%
